Where two headings read alike, the source gives them in different places.

Data set [1] is described as follows: Stability constants of La^3+ complexes by pH potentiometry. The class given is physicochemical. To be noted: −log[La^3+]free for [L] = 10 μM and [La^3+] = 1 μM at pH 7.4 and 25 °C; from literature constants. As to the method: The stability constants of the La^3+ complexes were determined using pH potentiometry (I = 0.15 NaCl). A significant amount of the metal ion is not complexed by the TPADAC^4– ligand at the beginning of the titration at pH 1.7 (∼20%), which allows for stability constant determination using potentiometry. In the case of TPAEN^4– the amount of free La^3+ was small (∼4%), but the stability constants could be determined by fitting the titration data using both 1:1 and 1:2 (TPAEN^4–:La^3+) stoichiometries (Figure S1, Supporting Information). The TPADAC^4– ligand also forms complexes with 1:1 and 1:2 stoichiometries (Figure S2, Supporting Information).
The thermodynamic stability of the complexes at physiologically relevant pH was assessed by calculating pLa values, defined as −log[La^3+]free for [L] = 10 μM and [La^3+] = 1 μM at pH 7.4 and 25 °C following the recommendation of Raymond. This is a result of the high stability constants (log K LaL) that characterize the formation of these complexes, as well as the relatively low basicity of these ligands. Indeed, cyclohexyl derivatives TPADAC^4– and CHXOCTAPA^4– display considerably higher basicity than the ethyl analogues, as indicated by the Σ log K i ^H (i = 1–5) values shown in Table . Similarly, DTPA and DO3A derivatives are characterized by rather high basicities, which results in relatively low pLa values.
The pH-potentiometric titrations were carried out with a Methrohm 785 DMP titrator using a Metrohm-6.0233.100 combined electrode. The titrated solutions (5.000 mL) were thermostated at 25 °C and stirred and kept under inert gas atmosphere (N2) to avoid the effect of CO2. The pH-calibration of the electrode was performed using KH-phthalate (pH = 4.005) and borax (pH = 9.177) buffers. The concentrations of the ligand stock solutions were determined by pH-potentiometric titration. The protonation constants of the TPAEN^4– (in the pH range of 2.19–12.00 a total of 213 data pairs by titrating a 2.72 mM a ligand solution) and TPADAC^4– (in the pH range of 1.88–11.85 a total of 208 data pairs by titrating a 2.32 mM ligand solution), the stability and protonation constants of the complexes formed with La^3+ and the formation constants of their dinuclear complexes were determined by pH-potentiometric titration. The metal-to-ligand concentration ratios were 1:1 and 2:1. For the 1:1 ratio a total of 240 data pairs were recorded for a H4TPAEN concentration of 2.29 mM in the pH range of 1.77–11.86, while a total of 222 data pairs were collected in the pH range 1.72–11.85 for a 2.72 mM solution of H4TPADAC. For the 2:1 ratio we collected 259 data pairs for a 2.31 mM solution of H4TPAEN in the pH range of 1.73–11.82, and 259 data pairs for a 2.71 mM concentration of H4TPADAC in the pH range of 1.70–11.85. The calculation of [H^+] from the measured pH values was performed with the use of the method proposed by Irving et al. by titrating a 0.01 M HCl solution (I = 0.15 M NaCl) with a standardized NaOH solution. The differences between the measured and calculated pH values were used to obtain the [H^+] concentrations from the pH-data obtained in the titrations. The ionic product of water was determined from the same experiment in the pH range 11.25–11.85. The protonation and stability constants were calculated from the titration data with the PSEQUAD program. The quality of the fits was assessed with the fitting parameter (FP) calculated by PSEQUAD, which is defined as 2 FP=∑i=1n(Vi,calc−Vi,meas)^2/n−k

The conditions of data set [2]: literature value, cited from earlier work.
The nature of data set [3]: Ligand protonation constants by pH-potentiometric titration. The format is physicochemical. The following applies: sum of literature protonation constants of related ligands.
The conditions of data set [4]: 0.15 M NaCl, cited from earlier work.

For the compound `O=C(O)CN(CCN(CC(=O)O)Cc1cccc(C(=O)O)n1)Cc1cccc(C(=O)O)n1` [OCTAPA^4–, 6,6′-((ethane-1,2-diylbis((carboxymethyl)azanediyl))bis(methylene))dipicolinic acid], the pLa in data set [1] is on record as 19.7. For the same compound, in data set [2] (ref footnote a), the “log K 1 ^H” value is 8.52, the “log K 2 ^H” value was 5.40, the “log K 3 ^H” value is given as 3.65 and the “log K 4 ^H” value is 2.97. Further, the “log K 5 ^H” value in data set [2] (ref footnote a) was 1.66. In data set [2] (ref footnote b), the “log K 1 ^H” value is reported as 8.58, the “log K 2 ^H” value is 5.43, the “log K 3 ^H” value was 3.75 and the “log K 4 ^H” value is given as 3.08. Also, in data set [2] (ref footnote b), the “log K 5 ^H” value is 2.21 and the “log K 6 ^H” value was 1.61 ^b. The “Σ log K i ^H (i = 1–5)” value in data set [3] was 22.20. Besides, the “log K LaL” value in data set [4] (ref footnote a) is 19.92.

Compound `O=C(O)CN(Cc1cccc(C(=O)O)n1)[C@@H]1CCCC[C@@H]1N(CC(=O)O)Cc1cccc(C(=O)O)n1` [CHXOCTAPA^4–, 6,6′-((((1R,2S)-cyclohexane-1,2-diyl)bis((carboxymethyl)azanediyl))bis(methylene))dipicolinic acid] registered a pLa in data set [1] of 16.6. Besides, in data set [2] (ref footnote c), the “log K 1 ^H” value was 9.52, the “log K 2 ^H” value is listed as 5.51, the “log K 3 ^H” value is given as 3.99 and the “log K 4 ^H” value is on record as 3.43. For the same compound, in data set [2] (ref footnote c), the “log K 5 ^H” value was 1.59 and the “log K 6 ^H” value is 0.61. In addition, in data set [2] (ref footnote d), the “log K 1 ^H” value was 9.23, the “log K 2 ^H” value is 5.40, the “log K 3 ^H” value is given as 3.94 and the “log K 4 ^H” value is given as 2.24. Further, in data set [2] (ref footnote d), the “log K 5 ^H” value was 1.82 and the “log K 6 ^H” value is on record as 1.91. In addition, the “Σ log K i ^H (i = 1–5)” value in data set [3] was found to be 24.04. In data set [4] (ref footnote b), the “log K LaL” value was 17.82, the “log K LaL ^H” value is reported as 2.00 and the “log K LaL ^OH” value is 12.75.

Source of the values: publication PMC12406198, “Decadentate Acyclic Chelators for Lanthanum Radiopharmaceuticals” (Journal of Medicinal Chemistry, 2025).
